Results on 3 compounds are retold here after article PMC8410599, “The structural basis of odorant recognition in insect olfactory receptors” (Nature, 2021).

For assay [1], the target named is T1, MhOR5 (Machilis hrabei, UniProt Z9G0B3H7M0).
T1 construct: Lys2-Pro474; cryo-EM: N-terminal Strep II-sfGFP cleaved with HRV 3C, HEK293S GnTI-; calcium assay: pME18s vector without fluorescent marker, HEK293 with GCaMP6s; homotetramer
T1 sequence (Z9G0B3H7M0 6-478): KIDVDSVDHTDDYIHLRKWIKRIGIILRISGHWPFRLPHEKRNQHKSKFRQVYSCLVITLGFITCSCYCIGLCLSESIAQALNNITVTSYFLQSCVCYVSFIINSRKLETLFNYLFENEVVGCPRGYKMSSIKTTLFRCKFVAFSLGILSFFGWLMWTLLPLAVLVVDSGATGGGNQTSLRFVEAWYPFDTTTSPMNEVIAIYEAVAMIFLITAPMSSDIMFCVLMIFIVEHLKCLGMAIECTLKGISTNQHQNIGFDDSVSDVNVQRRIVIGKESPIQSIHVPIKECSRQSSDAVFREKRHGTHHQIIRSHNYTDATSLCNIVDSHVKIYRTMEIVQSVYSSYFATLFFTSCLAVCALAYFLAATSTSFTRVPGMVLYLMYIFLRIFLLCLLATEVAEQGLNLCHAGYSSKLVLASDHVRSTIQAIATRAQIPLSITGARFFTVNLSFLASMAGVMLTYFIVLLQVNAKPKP
In words: GCaMP6s calcium flux, HEK293. Conditions: agonist, sub-maximal efficacy; 2 mM CaCl2, pH 7.4. It is filed as cell-based.

Assay [2] addresses T2, Orco (Apocrypta bakeri, UniProt B0FAQ4).
T2 construct: gene Or2; expressed in HEK293 cells with GCaMP6s; homotetramer
T2 sequence (B0FAQ4 1-474): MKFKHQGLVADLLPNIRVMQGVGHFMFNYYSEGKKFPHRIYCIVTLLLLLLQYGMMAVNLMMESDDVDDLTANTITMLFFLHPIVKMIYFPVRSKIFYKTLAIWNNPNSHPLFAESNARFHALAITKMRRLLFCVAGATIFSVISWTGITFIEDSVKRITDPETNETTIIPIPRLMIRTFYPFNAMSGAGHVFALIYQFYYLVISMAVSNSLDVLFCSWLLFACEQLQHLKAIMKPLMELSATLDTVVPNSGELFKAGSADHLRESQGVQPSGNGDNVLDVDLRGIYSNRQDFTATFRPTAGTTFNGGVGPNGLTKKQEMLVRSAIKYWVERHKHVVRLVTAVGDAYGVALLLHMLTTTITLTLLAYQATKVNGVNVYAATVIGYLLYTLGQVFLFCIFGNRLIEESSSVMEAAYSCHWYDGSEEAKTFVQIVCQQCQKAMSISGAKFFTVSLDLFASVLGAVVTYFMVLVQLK
Put plainly: cell-based. On the set-up: species or system HEK293; GCaMP6s calcium fluorescence dose-response of olfactory receptor channel expressed in HEK293 cells. Here is the method:
(§1) Seven ligand concentrations were used for each transfection condition in sequential dilutions of 3, alongside a control well of only reading buffer. Ligands were dissolved in DMSO to 150 mM, then diluted with reading buffer to a highest final-well concentration of 0.5 mM (DMSO never exceeded 0.5%). Water-soluble ligands (arabinose, caffeine, denatonium, glucose, MSG, sucrose) were dissolved directly into reading buffer. If experimental data indicated a more sensitive response than this range, the concentration was adjusted accordingly. Ligand concentrations for mutants were the same as for the corresponding wild-type OR. Each plate contained a negative control of GCaMP6s transfected alone and exposed to eugenol for MhOR5 and VUAA1 for Orco experiments. […] A control of DMSO alone was also tested to ensure no activity effects were due to the solvent. Each concentration of ligand was applied to four technical replicates, which were averaged and considered a single biological replicate. The baseline fluorescence (F) was calculated as the average fluorescence of the 30 s before odour was added to the plate. Within each well, ΔF was calculated as the difference between the average of the last 10 s of fluorescence and the baseline F. ΔF/F was then calculated as the ΔF divided by the baseline fluorescence (F). […]

Assay [3] deals with T2, Orco. Put plainly: cell-based. On the set-up: species or system HEK293; GCaMP6s calcium fluorescence (ΔF/F) dose-response in HEK cells expressing the odorant receptor. Here is the method: as §1

Like-named read-outs stand apart in the source and are kept apart here.

For `CCN(CC)C(=O)c1cccc(C)c1` [DEET], in assay [1], the concentration giving a half-maximal response (EC50) entry is recorded as “MhOR5 was also activated by the insect repellent DEET”. Take `CCc1ccc(NC(=O)CSc2nnc(-c3cccnc3)n2CC)cc1` [VUAA1]: in assay [2], the EC50 was 55.2 µM. For `CC(=O)c1ccccc1` [acetophenone], the EC50 in assay [3] is > 500 µM.

One may read the EC50 as the concentration giving half of the maximal effect.
